Measured values taken from publication PMC7155171, “Probing the Open Global Health Chemical Diversity Library for Multistage-Active Starting Points for Next-Generation Antimalarials” (ACS Infectious Diseases, 2020).
Where two headings read alike, the source gives them in different places.

Assays:
[1] = test system: P. falciparum Dd2 (PfLuc) line expressing firefly luciferase, asexual blood stage; experiment: microbe, parasite or virus in culture; assay type: cell-based, Plasmodium falciparum; settings: Plasmodium falciparum
[2] = test system: P. falciparum Dd2; experiment: SYBR green I asexual blood stage proliferation assay (96 h); assay type: cell-based, Plasmodium falciparum; settings: for IC50 / Emax: Plasmodium falciparum
[3] = DD2, read-out: CDD P. falciparum Luciferase ABS 11-pt Reconfirmation Dose Response (48hr): IC50 (μM), 11-pt dose response, 48hr
[4] = DD2, 8-pt dose response, 96hr, read-out: CDD P. falciparum Luciferase ABS 8-pt Reconfirmation Dose Response (96hr): IC50
[5] = DD2, 8-pt dose response, 96hr, read-out: CDD P. falciparum Luciferase ABS 8-pt Reconfirmation Dose Response (96hr): Maximum inhibition (%)
[6] = DD2, 11-pt dose response, 48hr, read-out: CDD P. falciparum Luciferase ABS 11-pt Reconfirmation Dose Response (48hr): Maximum inhibition (%)
[7] = DD2, 11-pt dose response, 96hr, read-out: CDD P. falciparum Luciferase ABS 11-pt Reconfirmation Dose Response (96hr): IC50
[8] = DD2, 11-pt dose response, 96hr, read-out: CDD P. falciparum Luciferase ABS 11-pt Reconfirmation Dose Response (96hr): Maximum inhibition (%)
[9] = DD2, Sybr Green I, 11-pt dose response, 96hr, read-out: CDD P. falciparum Sybr Green I ABS 11-pt Reconfirmation Dose Response (96hr): IC50
[10] = DD2, Sybr Green I, 11-pt dose response, 96hr, read-out: CDD P. falciparum Sybr Green I ABS 11-pt Reconfirmation Dose Response (96hr): Maximum inhibition (%)
[11] = DD2, read-out: P. falciparum Luciferase ABS 11-pt Reconfirmation Dose Response (48hr): IC50, 11-pt dose response, 48hr
[12] = DD2, 8-pt dose response, 96hr, read-out: P. falciparum Luciferase ABS 8-pt Reconfirmation Dose Response (96hr): IC50
[13] = DD2, 8-pt dose response, 96hr, read-out: P. falciparum Luciferase ABS 8-pt Reconfirmation Dose Response (96hr): Maximum inhibition (%)
[14] = DD2, 11-pt dose response, 48hr, read-out: P. falciparum Luciferase ABS 11-pt Reconfirmation Dose Response (48hr): Maximum inhibition (%)
[15] = DD2, 11-pt dose response, 96hr, read-out: P. falciparum Luciferase ABS 11-pt Reconfirmation Dose Response (96hr): IC50
[16] = DD2, 11-pt dose response, 96hr, read-out: P. falciparum Luciferase ABS 11-pt Reconfirmation Dose Response (96hr): Maximum inhibition (%)
[17] = DD2, 11-pt dose response, 96hr, read-out: P. falciparum Sybr Green I ABS 11-pt Reconfirmation Dose Response (96hr): IC50
[18] = DD2, 11-pt dose response, 96hr, read-out: P. falciparum Sybr Green I ABS 11-pt Reconfirmation Dose Response (96hr): Maximum inhibition (%)

| SMILES | IC50 [1, 3] [µM] | IC50 [1, 4] [µM] | Emax [1, 5] [%] | Emax [1, 6] [%] | IC50 [1, 7] [µM] | Emax [1, 8] [%] | IC50 [2, 9] [µM] | Emax [2, 10] [%] | also measured |
| --- | --- | --- | --- | --- | --- | --- | --- | --- | --- |
| CC(C)(C)CNCC1(O)CCCN(Cc2ccccc2F)C1=O (stereo not drawn) [DDD01250810] | > 12.5 | 1.09 | 82.3 | 55.3 | 5.69 | 80.8 | 4.31 | 64.2 |  |
| CCCn1nccc1C(=O)N1CCN(C2CCc3ccccc3C2)CC1 (stereo not drawn) [DDD01251134, CCCn1nccc1C(=O)N1CCN(CC1)C1CCc2ccccc2C1] |  |  |  |  |  |  |  |  | IC50 ([1]; DD2, read-out: CDD P. falciparum Luc 11pt dose response (96hr, n=2): IC50 (μM), 96hr, 11-point, n=2): 0.224 µM; IC50 ([1]; DD2, read-out: CDD P. falciparum Luciferase 11pt dose response (48hr, n=2): IC50 (μM), 48hr, 11-point, n=2): 0.205 µM; Emax ([1]; DD2, 48hr, 11-point, read-out: CDD P. falciparum Luciferase ABS 11-pt Reconfirmation Dose Response (48hr): Maximum inhibition (%)): 95.3%; Emax ([1]; DD2, 96hr, 11-point, read-out: CDD P. falciparum Luciferase ABS 11-pt Reconfirmation Dose Response (96hr): Maximum inhibition (%)): 100%; CDD P. falciparum Sybr Green I ABS Dd2 Dose Response: Maximum measured (%) ([2]; Dd2, 96 h): 56.3%; IC50 ([2]; DD2, 96 h, read-out: CDD P. falciparum Sybr Green I ABS Dd2 Dose Response: IC50): > 12.5 µM |
| Fc1ccccc1C1(CNC2CCOC3(CCOCC3)C2)CCCC1 (stereo not drawn) [DDD01251139] | 8.87 | 0.96 | 86.2 | 69.5 | 1.43 | 89.3 | 0.587 | 71.8 |  |
| Cc1nc(-c2cc(Cl)cc3c2OC(CN)C3)c[nH]1 (stereo not drawn) [DDD01251343] | > 12.5 | 0.67 |  | -0.28 | 3.7 | 84.3 | > 1.39 |  |  |
| Cc1nc(C2CCNCC2)cc(N(C)Cc2cc3cc(F)ccc3[nH]2)n1 [DDD01251474] | 2.3 | 0.99 | 93.3 | 98.2 | 0.415 | 100 | 3.2 | 90.9 |  |
| Cc1nccn1CCCN1CCCC(c2ccccc2)C1 (stereo not drawn) [DDD01251840] | 3.3 | 0.25 | 91.7 | 83.3 | 0.14 | 99.5 | 0.88 | 93.4 |  |
| OCc1csc(N2CCCC(COc3cccc(F)c3)C2)n1 (stereo not drawn) [DDD01251951] |  |  |  |  |  |  |  |  | IC50 [1, 11]: > 12.5 µM; IC50 [1, 12]: 1.71 µM; Emax [1, 13]: 79.1%; Emax [1, 14]: 45.9%; IC50 [1, 15]: 3.99 µM; Emax [1, 16]: 82.9%; IC50 [2, 17]: 1.63 µM; Emax [2, 18]: 63% |
| CN(CCCO)Cc1cc(Cl)ccc1OCC(O)CN1CCCCCC1 (stereo not drawn) [DDD01251957] | 2.71 | 0.99 | 94.6 | 99.2 | > 1.39 | 101 | 2.75 |  |  |
| CN1CCN(Cc2ccccc2Oc2nccc3occc23)CC1 [DDD01252026] | > 12.5 | 0.71 | 83.5 | 26.1 | 2.91 | 85.7 | > 4.16 | 63.4 |  |
| O=C(C1CNCCO1)N1CCCC(c2ccccc2)(c2ccccc2)C1 (stereo not drawn) [DDD01252287] |  |  |  |  |  |  |  |  | IC50 [1, 11]: 6.95 µM; IC50 [1, 12]: 2.21 µM; Emax [1, 13]: 80.7%; Emax [1, 14]: 53.2%; IC50 [1, 15]: 2.05 µM; Emax [1, 16]: 83.1%; IC50 [2, 17]: 5.76 µM; Emax [2, 18]: 58.4% |
| COCCn1ccnc1CN(Cc1ccccn1)Cc1sccc1C [DDD01252459] |  |  |  |  |  |  |  |  | IC50 [1, 11]: 3.48 µM; IC50 [1, 12]: 1.19 µM; Emax [1, 13]: 90.8%; Emax [1, 14]: 94.7%; IC50 [1, 15]: 0.73 µM; Emax [1, 16]: 99.1%; IC50 [2, 17]: > 4.16 µM; Emax [2, 18]: 87.8% |
| Cc1ccc(C2(CN(C)Cc3sccc3C)CCNCC2)nc1 [DDD01252463] | > 12.5 | 0.73 | 78.8 | 41.3 | 1.59 | 81.7 | > 12.5 | 57.2 |  |
| c1ccn2c(C3CCCN(c4ncnc5c4CCNC5)C3)nnc2c1 (stereo not drawn) [DDD01252518] | > 1.39 | 0.26 | 90.8 | 64.8 | 0.449 | 97.6 | > 12.5 | 42 |  |
| CCOc1cccc(CN2CCCC(Nc3ccc(F)cc3)C2)c1O (stereo not drawn) [DDD01252745] | 1.43 | 0.6 | 93.4 | 96.3 | 0.703 | 99.7 | 1.88 | 98.6 |  |
| CN(CCO)C[C@@H]1CN(Cc2ccccc2-c2ccccc2)C[C@@H]1CO [DDD01252927] | 8.14 | 0.57 | 92 | 71.8 | 1.25 | 92.8 | > 1.39 | 89.1 |  |
| Cc1ccc(C)c(OCCNC(=O)[C@@H]2CCCCN2)c1 [DDD01252936] | 6.36 | 0.37 | 89.3 | 74.3 | 1.17 | 87.5 | 7.6 |  |  |
| CN(C)c1nc2c(c(NCc3cc(O)ncn3)n1)CCCC2 [DDD01252975] | 3.75 | 0.59 | 94 | 96 | 2.11 | 99.7 | 1.82 | 99.1 |  |
| Cc1cc(F)ccc1N1CCC(N2C[C@@H](CN(C)C)[C@@H](CO)C2)CC1 [DDD01253692] | > 4.16 | 0.37 | 94.9 | 55.2 | 0.396 | 100 | 2.03 | 90.3 |  |
| c1ccc(C2CN(C3CC3)CC3(CCN(Cc4cscn4)CC3)C2)cc1 (stereo not drawn) [DDD01253863] |  |  |  |  |  |  |  |  | IC50 [1, 11]: 4.6 µM; IC50 [1, 12]: 1.16 µM; Emax [1, 13]: 78.8%; Emax [1, 14]: 85%; IC50 [1, 15]: 3.45 µM; Emax [1, 16]: 96.3%; IC50 [2, 17]: > 4.16 µM |
| OC(CNCc1ccccc1C(F)(F)F)c1ccccc1 (stereo not drawn) [DDD01254021] | 4.82 | 0.87 | 91.4 | 84.3 | 1.76 | 97.4 | 3.66 | 87.9 |  |
